Experimental data reported in ChEMBL document CHEMBL4651402, “Screening of ~5500 FDA-approved drugs and clinical candidates for anti-SARS-CoV-2 activity” (2021).
pIC50: −log10 of the molar value.

System: SARS-CoV-2
Test: microbe, parasite or virus in culture
Settings: Severe acute respiratory syndrome coronavirus 2, Vero C1008, 48 h; for IC50: read-out: pIC50 (converted)

SMILES	pIC50	IC50 [µM]
CC(=O)NC(CC(=O)O)C(=O)O (centres undefined)	< 4.70	> 20
CN(C)CCSc1nc2ccccc2cc1-c1ccccc1	< 4.70	> 20
C[C@H](Cc1ccc2c(c1)OC(C(=O)O)(C(=O)O)O2)NC[C@H](O)c1cccc(Cl)c1	< 4.70	> 20
O=C(O)C1CC(O)CN1 (centres undefined)	< 4.70	> 20
O=S(=O)(O)c1ccc2ccccc2c1	< 4.70	> 20
COc1ccc(-c2ccc3cc(C(=O)O)ccc3c2)cc1C12CC3CC(CC(C3)C1)C2	< 4.70	> 20
Cc1c[nH]c2ccccc12	< 4.70	> 20
CCOC(=O)C(CCc1ccccc1)NC(C)C(=O)N1CC2(CC1C(=O)O)SCCS2 (centres undefined)	< 4.70	> 20
C=CCn1c(=O)n(C2OC(CO)C(O)C2O)c2nc(N)[nH]c(=O)c21 (centres undefined)	< 4.70	> 20
CCCC(=O)O[C@]1(C(=O)CCl)C(C)CC2C3CCC4=CC(=O)C=CC4(C)[C@@]3(F)C(=O)CC21C (some centres undefined)	< 4.70	> 20
CC(=O)OCC(=O)C1(O)CCC2C3CCC4=CC(=O)C=CC4(C)C3C(O)CC21C (centres undefined)	< 4.70	> 20
CC1=C(C(=O)O)N2C(=O)C(NC(=O)C(N)c3ccc(O)cc3)C2SC1 (centres undefined)	< 4.70	> 20
CC12CCC3C(CCC4=CC(=O)C=CC43C)C1CCC(=O)O2 (centres undefined)	< 4.70	> 20
C[N+]1(C)C2CCC1CC(OC(=O)C(CO)c1ccccc1)C2 (centres undefined)	< 4.70	> 20
Clc1ccc(CO[C@H](Cn2ccnc2)c2ccc(Cl)cc2Cl)c(Cl)c1	< 4.70	> 20
C1=CN2CC(c3cccs3)N=C2S1 (centres undefined)	< 4.70	> 20
CCOc1ncc(S(=O)(=O)N2CCN(CC)CC2)cc1-c1nc2c(CC)n(CCOC)nc2c(=O)[nH]1	< 4.70	> 20
CCC(C)C(=O)OC1CC2(C)C(c3ccoc3)OC(=O)CC23OC2(C)OC34C(OC(=O)C(C)C)C3(O)C(OC(=O)C5(C)OC5C)C5(C)CC3(O)C(C)(C5CC(=O)OC)C14O2 (centres undefined)	< 4.70	> 20
O=C1Nc2ccc(Cl)cc2[C@](C#CC2CC2)(C(F)(F)F)O1	< 4.70	> 20
Cc1cccc(C)c1NC(=O)C1(N(C)C)CCN([C@H]2CCCC[C@@H]2O)CC1	< 4.70	> 20
CCOC(=O)Nc1ccc(SC[C@H]2CO[C@](Cn3ccnc3)(c3ccc(Cl)cc3Cl)O2)cc1	< 4.70	> 20
CC(C1=C(CCN(C)C)Cc2ccccc21)c1ccccn1 (centres undefined)	< 4.70	> 20
CC1CC(C)C(=O)C(C(O)CC2CC(=O)NC(=O)C2)C1 (centres undefined)	< 4.70	> 20
CCO[C@H](COc1ccc(C(F)(F)F)cc1)CSc1ccc(OCC(=O)O)c(C)c1	< 4.70	> 20
COC(=O)N[C@H](C(=O)N1CC2(CC2)C[C@H]1c1nc(-c2ccc3c(c2)C(F)(F)c2cc(-c4ccc5[nH]c([C@@H]6[C@H]7CC[C@H](C7)N6C(=O)[C@@H](NC(=O)OC)C(C)C)nc5c4)ccc2-3)c[nH]1)C(C)C	< 4.70	> 20
C[C@H]1O[C@@H](Oc2c(-c3ccc(O)c(O)c3)oc3cc(O)cc(O)c3c2=O)[C@@H](O)[C@@H](O)[C@@H]1O	< 4.70	> 20

SMILES	pIC50	IC50 [µM]
CNC(=O)Oc1ccc2c(c1)[C@]1(C)CCN(C)C1N2C (some centres undefined)	< 4.70	> 20
O=C(NCCN1CCN(c2cccc3c2OC[C@@H](CO)O3)CC1)c1ccc(F)cc1	< 4.70	> 20
C[Si](C)(C)c1cccc(C(=O)C(F)(F)F)c1	< 4.70	> 20
COc1ccc(CC(N)C(=O)NC2C(CO)OC(n3cnc4c(N(C)C)ncnc43)C2O)cc1 (centres undefined)	< 4.70	> 20
ClCCN(Cc1ccccc1)Cc1ccccc1	< 4.70	> 20
O=C(NC[C@H](O)CN1CCc2ccccc2C1)c1cc(NC2COC2)ncn1	< 4.70	> 20
CCOC(=O)C1=C(CN2CCOCC2)NC(c2nccs2)=N[C@H]1c1ccc(F)cc1Br	< 4.70	> 20
COc1ccc(C(=O)Nc2c(Cl)cncc2Cl)cc1OC1CCCC1	< 4.70	> 20
C=C[C@](C)(O)CC[C@H]1C(=C)C[C@H](O)[C@H]2C(C)(C)CCC[C@]12C	< 4.70	> 20
O=C(O)CC[N+](=O)[O-]	< 4.70	> 20
CC(C)OC(=O)[C@H](C)N[P@@](=O)(OC[C@@]1(F)O[C@@H](n2ccc(=O)[nH]c2=O)[C@](C)(O)[C@@H]1O)Oc1ccccc1	< 4.70	> 20
C[C@H]1N=C(N)O[C@@H]1c1ccccc1	< 4.70	> 20
COc1c2c(cc3c1C(O)N(C)CC3)OCO2 (centres undefined)	< 4.70	> 20
NC(=O)CNC1Cc2ccccc2C1	< 4.70	> 20
[2H]C([2H])(CCCCCCCC)C([2H])([2H])CCCCCC(=O)OC1CCCn2c1nc(C)c(CCN1CCC(c3noc4cc(F)ccc34)CC1)c2=O (centres undefined)	< 4.70	> 20
O=C1N[C@@H](C(=O)O)CS1	< 4.70	> 20
COc1ccc2c(c1)CCC1C2CCC2(C)C(O)CCC12 (centres undefined)	< 4.70	> 20
C/C(=C(\OCCOc1ccc(Cl)cc1)c1ccc(Cl)cc1Cl)n1ccnc1	< 4.70	> 20
[2H]C1([2H])[C@H]2C[C@@H]([C@@H]1Oc1ccc(C(F)(F)F)cn1)N(C(=O)c1cccc(F)c1-c1ncccn1)C2([2H])[2H]	< 4.70	> 20
NCC1O[C@H](O[C@@H]2C(N)C[C@@H](N)C(O[C@H]3OC(CO)[C@@H](O)C(N)C3O)C2O)C(N)C(O)[C@@H]1O (some centres undefined)	< 4.70	> 20
CC12CCC(C(C(=O)O)C1=O)C2(C)C (centres undefined)	< 4.70	> 20
C[N+]12CCC34c5ccccc5N5C(=O)CC6OCC=C(C1)C(CC32)C6C54 (centres undefined)	< 4.70	> 20
CC(C)=CCCC(C)C1CCC2(C)C3=C(CCC12C)C1(C)CCC(O)C(C)(C)C1CC3 (centres undefined)	< 4.70	> 20
COc1ccc2c(c1OC)C13CCN(C)C(C2)C1(O)CCC(O)C3 (centres undefined)	< 4.70	> 20
C=C1CC[C@H]2[C@@H](/C=C(/C)C(=O)[C@@]3(OC(C)=O)C[C@H](C)[C@H](OC(=O)c4ccccc4)[C@@H]3[C@H]1OC(C)=O)C2(C)C	< 4.70	> 20
CC(CCC(=O)O)C1CCC2C3CC[C@@H]4C[C@H](O)CC[C@]4(C)C3C[C@H](O)[C@]12C (some centres undefined)	< 4.70	> 20

SMILES	pIC50	IC50 [µM]
[2H]C1([2H])COc2ccc(Cc3cc([C@@H]4O[C@H](CO)[C@@H](O)[C@H](O)[C@H]4O)ccc3CC)cc2O1	< 4.70	> 20
CC(=O)OC[C@@]1(O)C[C@@]23CC[C@@H]4c5ccoc5CC[C@@]4(C)[C@@H]2CC[C@H]1C3	< 4.70	> 20
CN[C@H]1CCN(c2cc(NCC3CC3)nc(N)n2)C1	< 4.70	> 20
CC(C(=O)O)c1ccc2oc(-c3ccc(F)cc3)nc2c1 (centres undefined)	< 4.70	> 20
O=C(O)C(O)C(O)C(O)C(O)C(O)CO (centres undefined)	< 4.70	> 20
CC(C)CC(NC(=O)C(Cc1ccccc1)NC(=O)CNC(=O)[C@H](C)NC(=O)C(N)Cc1ccc(O)cc1)C(=O)N[C@H](CCCNC(=N)N)C(=O)O (some centres undefined)	< 4.70	> 20
CC(=O)OC1C[C@@]2(C)[C@@H](C[C@@H](O)C3[C@]2(C)CC[C@H]2[C@H](C)[C@H](O)CC[C@]32C)/C1=C(\CCC=C(C)C)C(=O)O (some centres undefined)	< 4.70	> 20
O=C(O)CCCC[C@H]1SC[C@H]2NC(=O)N[C@H]21	< 4.70	> 20
CC(C)CCCC(C)C1CCC2C3CCC4CC(=O)CCC4(C)C3CCC12C (centres undefined)	< 4.70	> 20
Cc1noc(-c2ccc(-c3ccc(C4(C(=O)O)CC4)cc3)cc2)c1NC(=O)O[C@@H](C)c1ccccc1	< 4.70	> 20
CCCCCCCCCCCC[N+](C)(C)CC(=O)O	< 4.70	> 20
CC12CCC3C(CC[C@H]4C[C@H](Cl)CCC34C)C1CCC2=O (some centres undefined)	< 4.70	> 20
CN(C)CC/C=C1\c2ccccc2CN(C)c2ccccc21	< 4.70	> 20
CCCCCC(C)(O)/C=C/C1CCC(=O)C1CCCCCCC(=O)O (centres undefined)	< 4.70	> 20
CN1CC(O)C2=CC(=NNC(N)=O)C(=O)C=C21 (centres undefined)	< 4.70	> 20
CC(=O)[C@@]1(O)CCC2C3C[C@H](C)C4=CC(=O)CCC4(C)C3CCC21C (some centres undefined)	< 4.70	> 20
CC1O[C@@H](OC2C(O)[C@H](OCCc3ccc(O)c(O)c3)OC(CO)[C@H]2OC(=O)/C=C/c2ccc(O)c(O)c2)C(O)C(O)[C@H]1O (some centres undefined)	< 4.70	> 20
C[C@]12C=CC(=O)C=C1CCC1C2C(O)C[C@@]2(C)C1CC[C@]2(O)C(=O)COC(=O)c1cccc(S(=O)(=O)O)c1 (some centres undefined)	< 4.70	> 20
C[C@@H]1CC2C3CCC4=CC(=O)C=CC4(C)[C@@]3(Cl)C(Cl)CC2(C)[C@@]1(O)C(=O)CO (some centres undefined)	< 4.70	> 20
CC(=O)OC1CCC2(C)C3CC=C4C5CC(C)(C)CCC5(C(=O)O)CC[C@@]4(C)C3(C)CC[C@H]2C1(C)C (some centres undefined)	< 4.70	> 20
CCN(Cc1ccccc1)C(=O)Cn1c(=O)n(C)c2cnc(-c3ccccc3)nc21	< 4.70	> 20
CC1=NC(=O)[C@](CCN(C(C)C)C(C)C)(c2ccccc2)[C@H]2CCCCN12	< 4.70	> 20
COc1ccc(S(=O)(=O)N2C(=O)[C@@](c3ccccc3OC)(N3C[C@H](O)C[C@H]3C(=O)N(C)C)c3cc(Cl)ccc32)c(OC)c1	< 4.70	> 20
N=C(Nc1ccccc1)Nc1ccccc1	< 4.70	> 20
NS(=O)(=O)c1ccc(N2CCN(CC[C@H]3OCCc4ccccc43)CC2)cc1	< 4.70	> 20
